Measured values as given in patent US20250228835A1, “PYRIDINYLOXYPYRIDINES AND RELATED COMPOUNDS AND THEIR USE IN TREATING MEDICAL CONDITIONS” (Rectify Pharmaceuticals, Inc., priority 2024, published 2025).

Key:
[1] = target: T1, ABCD2 WT (Homo sapiens, UniProt Q9UBJ2); assay: D2 correction dose-response assay: ABCD2 WT HiBit protein expression; assay type: cell-based; details: HEK-293/ABCD2 WT cells, 24 hours treatment, HiBit luminescence; class combines EC50 and Mean MaxAct (fold); read-out: ABCD2 WT EC50, Emax
T1 construct: expressed in transfected cells
T1 sequence (Q9UBJ2 1-740): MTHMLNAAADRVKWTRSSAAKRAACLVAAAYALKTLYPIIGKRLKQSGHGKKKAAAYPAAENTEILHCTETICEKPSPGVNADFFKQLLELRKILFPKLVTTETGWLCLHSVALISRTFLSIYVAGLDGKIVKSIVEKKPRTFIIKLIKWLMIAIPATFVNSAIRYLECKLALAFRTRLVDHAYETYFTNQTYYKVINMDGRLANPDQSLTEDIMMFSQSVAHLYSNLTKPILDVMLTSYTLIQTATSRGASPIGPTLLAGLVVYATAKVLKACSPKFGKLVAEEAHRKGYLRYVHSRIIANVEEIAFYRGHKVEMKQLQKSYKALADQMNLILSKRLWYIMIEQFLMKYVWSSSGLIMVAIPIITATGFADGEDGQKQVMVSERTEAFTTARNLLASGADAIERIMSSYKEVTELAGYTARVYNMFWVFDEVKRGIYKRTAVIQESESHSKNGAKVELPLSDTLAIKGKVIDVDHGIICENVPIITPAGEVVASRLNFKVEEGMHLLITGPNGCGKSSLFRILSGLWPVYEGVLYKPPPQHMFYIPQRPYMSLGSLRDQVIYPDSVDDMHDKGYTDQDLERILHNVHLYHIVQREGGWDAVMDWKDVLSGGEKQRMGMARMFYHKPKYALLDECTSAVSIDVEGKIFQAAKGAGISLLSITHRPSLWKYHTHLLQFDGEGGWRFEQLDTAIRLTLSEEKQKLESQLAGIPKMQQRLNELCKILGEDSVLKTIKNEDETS
Description: Exemplary compounds were evaluated in a D2 correction dose-response assay.
To assess activity against ABCD2, the compounds were screened in an assay measuring protein expression, using cells transfected with cDNA encoding HiBit-tagged ABCD2 wild-type. Here we describe an assay for measuring the expression of the wild type of human ABCD2 (henceforth referred to as ABCD2 WT) and the use of this assay to measure the efficacy of compounds to increase the expression of ABCD2 WT. The assay was designed to characterize the efficacy and potency of compounds to increase the expression of ABCD2 WT by calculating an Emax and EC50 value. HEK-293 cells stably expressing ABCD2 WT (HEK-293/ABCD2 WT) were used for this assay and were maintained at 37° C. (5% CO2, humidified) in Dulbecco's Modified Eagle Medium (DMEM, Gibco product #12100) supplemented with 10% fetal bovine serum (Biosera product #FB-1058/500), 1% PenStrep (HDB product #15140-122), and 0.5 mg/mL puromycin (Gibco product #A11138-03). For the assay, the HEK-293/ABCD2 WT cells were seeded in white/opaque 384-well plates (Corning product #3570) at 10,000 cells/well in 20 μl growth medium and allowed to settle for 4 hours at 37° C. (5% CO2, humidified). Compound serial dilutions are prepared in DMSO as three hundred times (333×) the final concentration and using a dilution factor of 3 using Bravo (Agilent). After the four-hour incubation period, 60 nL of DMSO solutions are transferred to the assay plate.
Dose response curves include eleven doses with the top final concentration at 30 μM in 0.3% DMSO. Liquid handling is performed with ECHO 550 Acoustic Liquid Handler (Labcyte). After addition of compound treatment, cells are incubated for 24 hours at 37° C. (5% CO2, humidified). After the 24-hour treatment, plates are allowed to equilibrate to room temperature for 10 minutes. Using Dragonfly Automated Liquid Handler (TTP LabTech), 20 μl of HiBit lytic assay reagent (Promega, product #N3040), which is prepared according to manufacturer's instructions, is added to each well. The plates are rotated at room temperature for 2 minutes and incubated for 1 hour at 25° C. before luminescent signal is acquired using an EnVision Multimode Plate Reader (PerkinElmer).

[2] = target: T2, ABCC6 WT (Homo sapiens, UniProt O95255); assay: ABCC6 WT assay: HiBit protein expression; assay type: cell-based; details: HEK-293 cells transiently expressing HiBit-tagged ABCC6 WT; 24 h treatment; top concentration 20 μM; read-out: ABCC6 WT EC50, Emax
T2 construct: expressed in transfected cells; host or cells: HEK-293 (transient, Lipofectamine 2000)
Text: To assess activity against ABCC6, compounds were screened in an assay measuring protein expression, using cells transfected with cDNA encoding HiBit-tagged ABCC6 wild-type.
Described here is an assay for measuring the expression of the wild type of human ABCC6 (henceforth referred to as ABCC6 WT) and the use of this assay to measure the efficacy of compounds to increase the expression of ABCC6 WT. The assay was designed to characterize the efficacy and potency of compounds to increase the expression of ABCC6 WT by calculating an Emax and EC50 value. HEK-293 cells transiently expressing ABCC6 WT (HEK-293/ACC6 WT) were used for this assay and were cultured at 37° C. (5% CO2, humidified) in Dulbecco's Modified Eagle Medium (DMEM, Gibco product #11965-092) supplemented with 10% fetal bovine serum. For the assay, HEK-293 cells were transfected with […]/10 cm plate of cDNA encoding HiBit-tagged ABCC6 wild-type using Lipofectamine 2000 (Thermo Fisher, product #11668019). Twenty-four hours after transfection, the HEK-293/ACC6 WT cells were seeded in white/opaque 384-well plates (PerkinElmer, cat. No. 6007688) at 10,000 cells/well in 20 μl growth medium and allowed to settle for 4 hours at 37° C. (5% CO2, humidified). Compound serial dilutions are prepared in growth medium as ten times (10×) the final concentration and using a dilution factor of 2. After the four-hour incubation period, 2.2 μL of the 10× dilutions are transferred to the assay plate.
Dose response curves include ten doses with the top final concentration at 20 μM in 0.15% DMSO. Liquid handling is performed with an Integra mini96-tip head (INTEGRA). After addition of compound treatment, cells are incubated for 24 hours at 37° C. (5% CO2, humidified). After the 24-hour treatment, plates are allowed to equilibrate for 15 minutes at room temperature. Using Integra mini-96, 20 μl of HiBit lytic assay reagent (Promega, product #N3040), which is prepared according to manufacturer's instructions, is added to each well. The plates are rotated at room temperature for 10 minutes and luminescent signal is acquired using an EnVision Multimode Plate Reader (PerkinElmer).
Results are presented below in Table 4 for ABCC6 WT.

T2 sequence (O95255 whole entry): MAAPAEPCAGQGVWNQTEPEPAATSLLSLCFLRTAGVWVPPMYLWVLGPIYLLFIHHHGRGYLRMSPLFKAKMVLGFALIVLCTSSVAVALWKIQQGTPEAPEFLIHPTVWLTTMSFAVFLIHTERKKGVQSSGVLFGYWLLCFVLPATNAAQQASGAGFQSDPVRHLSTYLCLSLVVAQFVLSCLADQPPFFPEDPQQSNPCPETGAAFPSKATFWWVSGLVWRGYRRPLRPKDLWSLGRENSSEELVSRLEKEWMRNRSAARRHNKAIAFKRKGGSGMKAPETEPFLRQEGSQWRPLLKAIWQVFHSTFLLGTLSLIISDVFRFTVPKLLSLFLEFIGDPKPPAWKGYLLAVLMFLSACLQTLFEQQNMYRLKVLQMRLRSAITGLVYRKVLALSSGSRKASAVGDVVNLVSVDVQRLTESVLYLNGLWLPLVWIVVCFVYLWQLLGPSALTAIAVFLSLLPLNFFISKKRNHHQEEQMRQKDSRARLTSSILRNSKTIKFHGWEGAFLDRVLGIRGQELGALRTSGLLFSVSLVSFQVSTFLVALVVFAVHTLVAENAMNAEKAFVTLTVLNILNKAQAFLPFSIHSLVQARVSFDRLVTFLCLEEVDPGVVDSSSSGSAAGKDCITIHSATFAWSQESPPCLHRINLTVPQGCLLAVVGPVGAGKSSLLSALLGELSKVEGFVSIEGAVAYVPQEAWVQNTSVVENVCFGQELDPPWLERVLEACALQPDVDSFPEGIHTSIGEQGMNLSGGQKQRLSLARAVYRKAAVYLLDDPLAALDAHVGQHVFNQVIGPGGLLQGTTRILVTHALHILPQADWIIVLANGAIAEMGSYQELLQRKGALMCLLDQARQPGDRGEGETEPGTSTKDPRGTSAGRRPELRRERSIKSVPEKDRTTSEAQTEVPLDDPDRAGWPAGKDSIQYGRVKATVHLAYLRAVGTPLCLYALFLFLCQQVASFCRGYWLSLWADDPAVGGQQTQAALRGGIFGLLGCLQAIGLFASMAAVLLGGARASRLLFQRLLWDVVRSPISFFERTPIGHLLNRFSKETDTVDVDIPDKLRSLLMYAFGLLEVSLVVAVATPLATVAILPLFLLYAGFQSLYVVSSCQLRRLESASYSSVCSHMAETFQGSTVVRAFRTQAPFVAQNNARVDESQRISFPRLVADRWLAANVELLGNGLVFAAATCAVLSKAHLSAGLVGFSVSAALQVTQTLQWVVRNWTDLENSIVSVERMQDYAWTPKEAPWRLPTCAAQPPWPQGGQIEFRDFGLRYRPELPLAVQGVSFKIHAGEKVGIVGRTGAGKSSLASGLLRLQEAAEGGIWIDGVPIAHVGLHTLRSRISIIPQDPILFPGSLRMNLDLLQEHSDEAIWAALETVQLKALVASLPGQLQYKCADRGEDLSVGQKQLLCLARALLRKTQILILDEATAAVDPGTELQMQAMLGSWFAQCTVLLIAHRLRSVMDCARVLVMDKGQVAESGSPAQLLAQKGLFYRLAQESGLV

EC50 [1] [nM]	EC50 [2] [nM]	Compound
< 1000	< 1000	Cc1nc(C2CC2)c(C(F)F)cc1Oc1nc(-c2cncc(C#N)c2)ccc1NS(C)(=O)=O [Compound I-179]
< 1000	< 1000	Cc1cc(C)c(Oc2nc(-c3cncc(N4CC(F)C4)c3)ccc2NS(C)(=O)=O)c(C)n1 [Compound I-185]
< 1000	< 1000	Cc1cc(C)c(Oc2nc(-c3cncc(N4CCC4)c3)ccc2NS(C)(=O)=O)c(C)n1 [Compound I-190]
< 1000	< 1000	Cc1nc(C2CC2)c(C(F)(F)F)cc1Oc1nc(-c2cncc(C#N)c2)ccc1NS(C)(=O)=O [Compound I-184]
> 25000	< 1000	Cc1nc(C(F)F)nc(C)c1Oc1nc(-c2cncc(Cl)c2)ccc1NS(C)(=O)=O [Compound I-175]
> 25000	< 1000	Cc1cc(C)c(Oc2nc(-c3cnn(C)c3C)ccc2NS(C)(=O)=O)c(C)c1 [Compound I-13]
1000 to 10000	1000 to 10000	CC(=O)N1CCN(c2ccc(NS(C)(=O)=O)c(Oc3c(C)cc(C)cc3C)n2)CC1 [Compound I-17]
< 1000	< 1000	Cc1nc(C)c(C(F)(F)F)cc1Oc1nc(-c2cncc(C#N)c2)ccc1NS(C)(=O)=O [Compound I-225]
< 1000	< 1000	Cc1nc(C)c(Oc2nc(-c3cncc(C#N)c3)ccc2NS(C)(=O)=O)c(C)n1 [Compound I-234]
< 1000	< 1000	C#Cc1cncc(-c2ccc(NS(C)(=O)=O)c(Oc3c(C)cc(C)nc3C)n2)c1 [Compound I-212]
< 1000	< 1000	COC1CN(c2cncc(-c3ccc(NS(C)(=O)=O)c(Oc4c(C)cc(C)nc4C)n3)c2)C1 [Compound I-196]
> 25000	≥ 25000	Cc1cc(C)c(Oc2nc(-c3cncc(S(C)(=N)=O)c3)ccc2NS(C)(=O)=O)c(C)n1 (stereo not shown) [Compound I-116]
< 1000	< 1000	Cc1cc(C)c(Oc2nc(-n3cnc(C)c3)ccc2NS(C)(=O)=O)c(C)c1 [Compound I-12]
< 1000	< 1000	Cc1cc(OC(F)(F)F)nc(C)c1Oc1nc(-c2cncc(C#N)c2)ccc1NS(C)(=O)=O [Compound I-131]
> 25000	< 1000	Cc1cc(C)c(Oc2nc(-c3cncc(N4CC(F)(F)C4)c3)ccc2NS(C)(=O)=O)c(C)n1 [Compound I-195]

Second part, the compound before the results:

Compound	EC50 [1] [nM]	EC50 [2] [nM]
Cc1cc(C)c(Oc2nc(-c3cncc(C4CC4)c3)ccc2NS(C)(=O)=O)c(C)n1 [Compound I-232]	< 1000	< 1000
Cc1cc(C)c(Oc2nc(-c3cncc(C#N)c3)ccc2N2CCCS2(=O)=O)c(C)n1 [Compound I-221]	> 25000	1000 to 10000
Cc1cc(C2CC2)c(Oc2nc(-c3cncc(C#N)c3)ccc2NS(C)(=O)=O)c(C)n1 [Compound I-171]	< 1000	< 1000
COc1cc(-c2ccc(NS(C)(=O)=O)c(Oc3c(C)cc(C)nc3C)n2)ccn1 [Compound I-188]	1000 to 10000	< 1000
Cc1nc(C(F)(F)F)nc(C)c1Oc1nc(-c2cncc(Cl)c2)ccc1NS(C)(=O)=O [Compound I-205]	< 1000	< 1000
Cc1cc(C)c(Oc2nc(-c3cncc(C4COC4)c3)ccc2NS(C)(=O)=O)c(C)n1 [Compound I-216]	< 1000	< 1000
Cc1cc(C2CC2)nc(C)c1Oc1nc(-c2cncc(Cl)c2)ccc1NS(=O)(=O)C1COC1 [Compound I-236]	< 1000	< 1000
Cc1cc(N2CCC2)nc(C)c1Oc1nc(-c2cncc(C#N)c2)ccc1NS(C)(=O)=O [Compound I-177]	> 25000	< 1000
Cc1cc(C)c(Oc2nc(-c3cncc(C#N)c3)ccc2NS(=O)(=O)C2(C)CC2)c(C)n1 [Compound I-172]	> 25000	1000 to 10000
Cc1cc(N2CC(F)(F)C2)nc(C)c1Oc1nc(-c2cncc(C#N)c2)ccc1NS(C)(=O)=O [Compound I-180]	> 25000	< 1000
Cc1nc(Oc2nc(-c3cncc(C#N)c3)ccc2NS(C)(=O)=O)c(C)s1 [Compound I-107]	< 1000	< 1000
Cc1cc(C(F)(F)F)nc(C)c1Oc1nc(-c2cncc(C3COC3)c2)ccc1NS(C)(=O)=O [Compound I-198]	> 25000	≥ 25000
Cc1cc(Oc2nc(-c3cncc(C#N)c3)ccc2NS(C)(=O)=O)c(C)nc1C1CC1 [Compound I-127]	> 25000	< 1000
COCc1cncc(-c2ccc(NS(C)(=O)=O)c(Oc3c(C)cc(C)nc3C)n2)c1 [Compound I-231]	< 1000	< 1000
Cc1cc(C)c(Oc2nc(-n3cc(C)cn3)ccc2NS(C)(=O)=O)c(C)c1 [Compound I-11]	1000 to 10000	1000 to 10000
Cc1cc(C)c(Oc2nc(-c3ccn(C)c(=O)c3)ccc2NS(C)(=O)=O)c(C)n1 [Compound I-186]	> 25000	< 25000
Cc1cc(C2CC2)nc(C)c1Oc1nc(-c2cncc(C#N)c2)ccc1NS(=O)(=O)C1COC1 [Compound I-235]	< 1000	< 1000
Cc1cc(Oc2nc(-c3cncc(C#N)c3)ccc2NS(C)(=O)=O)c(C)nc1C(F)(F)F [Compound I-182]	< 1000	< 1000
Cc1nc(C)c(Oc2nc(-c3cncc(C4CC4)c3)ccc2NS(C)(=O)=O)c(C)n1 [Compound I-193]	< 1000	< 1000
Cc1cc(C)c(Oc2nc(N3CCN(C(=O)C4(C)CC4)CC3)ccc2NS(C)(=O)=O)c(C)c1 [Compound I-15]	> 25000	1000 to 10000
